# Test results: patent publication US9040715B2 (priority 2008, dated 2015)
# Tests used:
# [1] = system: Huh7 cells; assay: Neutral red uptake assay (cytotoxicity); format: cell-based, human
# From the text: The neutral red uptake assay is a cytotoxicity test that is based on the ability of viable cells to incorporate and bind the supra-vital dye neutral red in the lysosomes. This weakly cationic dye penetrates cell membranes by non-ionic passive diffusion and concentrates in the lysosomes, where it binds by electrostatic hydrophobic bonds to anionic and phosphate groups of the lysosomal matrix. The dye is then extracted from the viable cells using an acidified ethanol solution, and the absorbance of the solubilized dye is read. When the cell dies or the pH gradient is reduced, the dye is not retained and consequently, the amount of retained dye is proportional to the number of viable cells. Most primary cells and cell lines can be used for this method. The HepG2 and Huh7, two human hepatoma cell lines, were used for this study. The cells were seeded in 96-well tissue culture plates and treated for 48 hours with the compounds. The plates were then incubated for 2 hours with a medium containing neutral red. The cells were subsequently washed, the dye was extracted in each well, and the absorbance was read using a spectrophotometer (FIG. 3 and Table 11).
# [2] = system: C. albicans Mutants; assay: MIC50 in C. albicans mutant strains; format: cell-based; conditions: Candida albicans
# Description: (§1) The minimum inhibitory concentrations resulting in 50% growth inhibition (MIC50) of […] Candida species (C. albicans, C. tropicalis and C. glabrata, C. lusitaniae, C. parapsilosis, and C. apicola) as well as Aspergillus fumigatus to a set of novel synthetic compounds was determined in accordance with the guidelines in CLSI document M27-A2 (Clinical and Laboratory Standards Institute; Wayne, Pa.). The total volume of cells and drug was 100 μL per microtiter well, and each drug was diluted in RPMI to achieve final concentrations of 0.2-100 μg/ml. Uninoculated cultures were used as a reference standard. Stock inoculum suspensions were prepared from 24 hour cultures on YPD (yeast extract/peptone/dextrose) media at 30° C. For MIC determinations, an inoculum of 1.0×10^3 cells of Candidia and 2.0×10^3 cells of Aspergillus per well were used, and cells in diluted drugs were prepared in RPMI-1640 medium. MICs were determined both visually and spectrophotometrically at 24 hours and 48 h at 550 nm using a micro plate reader. The MIC50 endpoint was measured as the lowest drug concentration resulting in a reduction of growth of 50% or more compared with growth of the control.
# (§2) The MIC50 of Compounds I-1, I-2, and I-5 in several mutant strains of Candida albicans, including fluconazole resistant clinical strains, was determined according to the methods described in Example 1 (see Table 9). The activity of Compound I-1 against fluconazole resistant strains was further explored (see Table 10). In Table 10, Strain #1 is a fluconazole sensitive Candida albicans strain; Strain #17 is a fluconazole resistant Candida albicans strain; C. albicans CS#01 is a first clinical strain; C. albicans CS#02 is a second clinical strain.
# [3] = system: Candida albicans (CAF-2); assay: Anti-fungal/anti-yeast activity: MIC50 (broth microdilution) and MFC; format: cell-based
# Description: (§3) Fluconazole, an ergosterol inhibitor, and the beta-1,3-glucan inhibitor micafungin served as controls (See Tables 1-8).
# as §1
# (§4) The minimum fungicidal concentrations (MFCs) were determined for each drug-isolate-medium combination as follows. After 48 hours of incubation, 100 μL of each drug-isolate-medium combination (2 plates) was subcultured onto YPD plates (100 μL of solution was spread over the YPD plate). […] The plates were then incubated at 30° C. for 48 hours.
# (§5) The in vitro fungicidal activities (MFCs) were determined for each drug-isolate-medium combination as follows. After 48 hours of incubation, 10 μL each drug-isolate-medium combination was spotted onto YPD plates (10 μL of each well is spotted sequentially with positive and negative control wells). […] The plates were then incubated at 30° C. for 48 hours.
# [4] = system: Candida apicola; assay: as above; format: cell-based
# Description: as §3, §1, §4, §5
# [5] = system: Candida tropicalis; assay: as above; format: cell-based
# Description: as §3, §1, §4, §5
# [6] = system: Aspergillus fumigatus; assay: as above; format: cell-based
# Description: as §3, §1, §4, §5
# [7] = system: Candida lusitaniae; assay: as above; format: cell-based
# Description: as §3, §1, §4, §5
# [8] = system: Candidia parapsilosis; assay: as above; format: cell-based
# Description: as §3, §1, §4, §5
# [9] = system: Candida glabrata; assay: as above; format: cell-based
# Description: as §3, §1, §4, §5
# [10] = system: Saccharomyces cerevisiae (YPH501); assay: as above; format: cell-based
# [11] = system: Fluconazole Resistant C. albicans; assay: microbe, parasite or virus in culture; format: cell-based; conditions: Candida albicans
# Description: as §1, §2
# [12] = system: Huh7 or HepG2 cell line; assay: MTT assay (cytotoxicity); format: cell-based, human; conditions: 24 hours and 48 hours
# Description: The MTT assay is a colorimetric assay that measures the reduction of yellow 3-(4,5-dimethylhiazol-2-yl)-2,5-diphenyl tetrazolium bromide (MTT) by mitochondrial succinate dehydrogenase. The MTT enters the cells and passes into the mitochondria where it is reduced to an insoluble, dark purple, formazan product. The cells are then solubilized with an organic solvent (e.g., isopropanol) and the released, solubilized formazan reagent is measured spectrophotometrically. Since reduction of MTT can only occur in metabolically active cells, the level of activity is a measure of the viability of the cells.
# Cells of the Huh7 or HepG2 cell line were seeded in a 96 well plate. The plate was incubated overnight at 37° C. in a humidified incubator, 5% CO2. The test compounds were added to the plate. Different concentrations of drug were tested in triplicate along with a negative control. The final volume was adjusted to 100 μl per well. The plate was incubated overnight at 37° C. in a humidified incubator, 5% CO2. After 24 hours and 48 hours, MTT reagent (5 mg/ml, 10 μl/100 μl per well of the 96 well plate) was added and incubated at 37° C. for 3 hours. After 3 hours, 100 μl of the DMSO solution was added to each well and the plate was rocked at room temperature for 1 hour. The plate was then read on a plate reader at […].
# [13] = Saccharomyces cerevisiae (YPH501)
compound,measurement,setting,value
CN(Cc1ccccc1)C(=O)Cn1sc2ccccc2c1=O [Compound I-1],Percentage Viability,[1]; 3.3 μg/mL (approx 1X MIC),>100%
same,Percentage Viability,[1]; 10 μg/mL (approx 3X MIC),>100%
same,Percentage Viability,[1]; 33 μg/mL (approx 10X MIC),>100%
same,Percentage Viability,[1]; 100 μg/mL (approx 30X MIC),83%
same,MIC50,[2]; C. albicans strain CAF-2,3 µg/mL
same,MIC50,[2]; C. albicans strain CHK11,3 µg/mL
same,MIC50,[2]; C. albicans strain CHK21,3 µg/mL
same,MIC50,[2]; C. albicans strain CHK23,3 µg/mL
same,MIC50,[2]; C. albicans strain GOA31,6 µg/mL
same,MIC50,[2]; C. albicans strain GOA32,3 µg/mL
same,Activity (fungicidal/fungistatic),[3],fungicidal (An MFC/MIC ratio of less than four indicates that the compound is fungicidal)
same,MFC,[3],6 µg/mL
same,Ratio MFC/MIC,[3],2
same,MIC,[3]; read-out: MIC-50,3.2 µg/mL
same,Activity (fungicidal/fungistatic),[4]; Candida apicola,fungicidal (An MFC/MIC ratio of less than four indicates that the compound is fungicidal)
same,MIC-50,[4]; Candida apicola,3.2 µg/mL
same,Ratio MFC/MIC,[4]; Candida apicola,1
same,MFC,[4]; Starmerella apicola,3.2 µg/mL
same,Activity (fungicidal/fungistatic),[5],fungicidal (An MFC/MIC ratio of less than four indicates that the compound is fungicidal)
same,MFC,[5],3.2 µg/mL
same,Ratio MFC/MIC,[5],1
same,MIC,[5]; read-out: MIC-50,3.2 µg/mL
same,Activity (fungicidal/fungistatic),[6],fungistatic (an MFC/MIC ratio of greater than four indicates that the compound is fungistatic)
same,MFC,[6],100 µg/mL
same,MIC50,[6],25 µg/mL
same,Ratio MFC/MIC,[6],4
same,Activity (fungicidal/fungistatic),[7]; Candida lusitaniae,fungicidal (An MFC/MIC ratio of less than four indicates that the compound is fungicidal)
same,Ratio MFC/MIC,[7]; Candida lusitaniae,1
same,MFC,[7]; Clavispora lusitaniae,3.2 µg/mL
same,MIC,"[7]; Clavispora lusitaniae, read-out: MIC-50",3.2 µg/mL
same,MFC,[8],3.2 µg/mL
same,Activity (fungicidal/fungistatic),[8]; Candidia parapsilosis,fungicidal (An MFC/MIC ratio of less than four indicates that the compound is fungicidal)
same,Ratio MFC/MIC,[8]; Candidia parapsilosis,1
same,MIC,[8]; read-out: MIC-50,3.2 µg/mL
same,Activity (fungicidal/fungistatic),[9]; Candida glabrata,fungicidal (An MFC/MIC ratio of less than four indicates that the compound is fungicidal)
same,Ratio MFC/MIC,[9]; Candida glabrata,2
same,MFC,[9]; Nakaseomyces glabratus,12.5 µg/mL
same,MIC,"[9]; Nakaseomyces glabratus, read-out: MIC-50",6.2 µg/mL
same,MFC,[10]; Saccharomyces cerevisiae,3.2 µg/mL
same,Activity (fungicidal/fungistatic),[10]; [13],fungicidal (An MFC/MIC ratio of less than four indicates that the compound is fungicidal)
same,Ratio MFC/MIC,[10]; [13],2
same,MIC,"[10]; Saccharomyces cerevisiae, read-out: MIC-50",1.6 µg/mL
same,MIC50,"[11]; C. albicans CS#01, first clinical strain",3 µg/mL
same,MIC50,"[11]; C. albicans CS#02, second clinical strain",3 µg/mL
same,MIC50,"[11]; Strain #1, fluconazole sensitive Candida albicans strain",3 µg/mL
same,MIC50,"[11]; Strain #17, fluconazole resistant Candida albicans strain",6 µg/mL
same,Toxicity to mammalian cell lines (MTT assay),[12],minimally toxic
